pIC50: −log10 of the molar value. Values after ≈ are worked out from the molar mass of the structure shown. Active and inactive are the calls of the source. The rule behind the calls is not given here.
Experiments:
HCT-116 [1] = experiment: Induction of apoptosis in human HCT-116 cells assessed as late apoptotic cells level at 1 uM incubated for 24 hrs by Annexin V-FITC/PI staining based flow cytometry (reference value: 0.07%); type: functional
Raji [2] = experiment: Cytotoxicity against human Raji assessed as reduction in cell viability measured after 72 hrs by MTT assay; type: functional, cell-based
[3] = Toxicity in NPG mouse xenografted with human Raji cells assessed as body weight loss at 2 mg/kg, ip measured after 5 day; type: organism-based; settings: in vivo, 120 h
LoVo = experiment: Cytotoxicity against human LoVo assessed as reduction in cell viability measured after 72 hrs by MTT assay; type: functional, cell-based
HCT-116 [4] = experiment: Cytotoxicity against human HCT-116 assessed as reduction in cell viability measured after 72 hrs by MTT assay; type: functional, cell-based; settings: HCT-116, 72 h
[5] = Toxicity in NPG mouse xenografted with human Raji cells assessed as body weight loss at 4 mg/kg, ig measured after 5 day; type: organism-based; settings: in vivo, po, 120 h
[6] = Toxicity in NPG mouse xenografted with human Raji cells assessed as body weight loss at 2 mg/kg, ip measured on the day 1; type: organism-based; settings: in vivo
Raji [7] = experiment: Antitumor activity against NPG mouse xenografted with human Raji cell assessed as tumor growth inhibition at 4 mg/kg, ig measured after 5 day; type: functional; settings: po, 120 h, read-out: TGI
[8] = Solubility of compound in phosphate buffer at pH 4.5 incubated for 24 hrs under shaking condition by HPLC analysis; type: physicochemical
[9] = Toxicity in NPG mouse xenografted with human Raji cells assessed as body weight loss at 8 mg/kg, ig measured after 5 day; type: organism-based; settings: in vivo, po, 120 h
[10] = Toxicity in Kunming mouse assessed as mortality at 30 mg/kg, iv measured once every 30 mins upto 10 days; type: organism-based; settings: in vivo, 0.5 h
HCT-116 [11] = experiment: Induction of apoptosis in human HCT-116 cells assessed as late apoptotic cells level at 0.001 uM incubated for 24 hrs by Annexin V-FITC/PI staining based flow cytometry (reference value: 0.07%); type: functional
HCT-116 [12] = experiment: Antitumor activity against human HCT-116 cells xenografted in nude BALB/c mouse assessed as tumor growth inhibition at 0.5 mg/kg, ip dosed once the other day for 24 days; type: functional; settings: HCT-116, ip, 576 h, time 24 day, read-out: TGI
[13] = Toxicity in Kunming mouse assessed as mortality at 300 mg/kg ip measured once every 30 mins upto 10 days; type: organism-based; settings: in vivo, 0.5 h
HCT-116 [14] = experiment: Inhibition of colony formation in human HCT-116 cells incubated for 12 days by crystal violet dye based assay; type: functional, cell-based; settings: dose 0.001-1 nM, time 12.0 day
[15] = MRT (0 to infinity) in nude BALB/c mouse serum at 8.0 mg/kg incubated up to 9 hrs, iv administered […] by LC-MS/MS analysis; type: ADME, organism-based
[16] = Toxicity in Kunming mouse assessed as mortality at 150 mg/kg ip measured once every 30 mins upto 10 days; type: organism-based; settings: in vivo, 0.5 h
[17] = Toxicity in nude BALB/c mouse xenografted with human HCT-116 cells assessed as reduction in body weight at 8 mg/kg, po dosed once the every 2 day for upto 24 days; type: organism-based; settings: in vivo, time <=24 day
Raji [18] = experiment: Antitumor activity against NPG mouse xenografted with human Raji cell assessed as decrease in tumor volume at 4 mg/kg, ip measured on the 1 day; type: functional
Raji [19] = experiment: Antitumor activity against NPG mouse xenografted with human Raji cell assessed as decrease in tumor volume at 4 mg/kg, ip measured after 5 day; type: functional
Raji [20] = experiment: Antitumor activity against NPG mouse xenografted with human Raji cell assessed as decrease in tumor volume at 4 mg/kg, ig measured after 5 day; type: functional
HCT-116 [21] = experiment: Induction of apoptosis in human HCT-116 cells assessed as early apoptotic cells level at 0.03 uM incubated for 24 hrs by Annexin V-FITC/PI staining based flow cytometry (reference value: 0.17%); type: functional
HCT-116 [22] = experiment: Antitumor activity against human HCT-116 cells xenografted in nude BALB/c mouse assessed as tumor growth inhibition at 8 mg/kg, po dosed once the other day for 12 times upto 24 days; type: functional; design: scale not given: the % may be the effect or the level left; settings: time day <=24
HCT-116 [23] = experiment: Induction of apoptosis in human HCT-116 cells assessed as early apoptotic cells level at 0.001 uM incubated for 24 hrs by Annexin V-FITC/PI staining based flow cytometry (reference value: 0.17%); type: functional
[24] = molecular target: T1, DNA topoisomerase 1 (Homo sapiens) (UniProt P11387); experiment: Inhibition of human recombinant topoisomerase I using DNA pBR322 as substrate assessed as relaxed DNA at 100 uM incubated for 30 mins by gel electrophoresis analysis relative to control
T1 sequence (whole entry): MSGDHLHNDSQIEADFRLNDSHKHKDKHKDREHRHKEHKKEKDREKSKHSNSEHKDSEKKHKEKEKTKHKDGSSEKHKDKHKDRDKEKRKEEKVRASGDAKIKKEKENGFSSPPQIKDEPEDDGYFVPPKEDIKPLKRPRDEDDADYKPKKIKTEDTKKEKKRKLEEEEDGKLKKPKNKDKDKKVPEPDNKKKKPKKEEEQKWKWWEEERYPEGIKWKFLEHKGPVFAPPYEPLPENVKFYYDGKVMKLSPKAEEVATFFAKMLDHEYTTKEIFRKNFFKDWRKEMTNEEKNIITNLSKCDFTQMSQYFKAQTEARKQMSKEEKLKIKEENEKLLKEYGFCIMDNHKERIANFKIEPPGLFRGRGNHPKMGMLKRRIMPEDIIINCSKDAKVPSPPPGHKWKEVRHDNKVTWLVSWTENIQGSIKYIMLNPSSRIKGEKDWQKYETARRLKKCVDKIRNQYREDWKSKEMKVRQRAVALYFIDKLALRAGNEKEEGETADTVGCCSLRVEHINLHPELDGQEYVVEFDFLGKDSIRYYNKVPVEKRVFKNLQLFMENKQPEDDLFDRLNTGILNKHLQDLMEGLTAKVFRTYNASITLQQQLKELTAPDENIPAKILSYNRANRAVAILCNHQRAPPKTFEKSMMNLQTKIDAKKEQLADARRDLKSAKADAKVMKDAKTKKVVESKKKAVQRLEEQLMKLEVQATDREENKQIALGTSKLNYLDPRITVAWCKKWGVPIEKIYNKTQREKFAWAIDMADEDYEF

[25] = Cmax in nude BALB/c mouse serum at 8.0 mg/kg incubated up to 9 hrs, iv administered […] by LC-MS/MS analysis; type: ADME, organism-based; design: route intravenous, dose 8 mg/kg, time <=9
HCT-116 [26] = experiment: Induction of apoptosis in human HCT-116 cells assessed as early apoptotic cells level at 1 uM incubated for 24 hrs by Annexin V-FITC/PI staining based flow cytometry (reference value: 0.17%); type: functional
[27] = MRT (0 to infinity) in nude BALB/c mouse serum at 8.0 mg/kg incubated up to 9 hrs, po administered via gavage by LC-MS/MS analysis; type: ADME, organism-based
[28] = Tmax in nude BALB/c mouse serum at 8.0 mg/kg incubated up to 9 hrs, po administered via gavage by LC-MS/MS analysis; type: ADME, organism-based
Raji [29] = experiment: Antitumor activity against NPG mouse xenografted with human Raji cell assessed as decrease in tumor volume at 8 mg/kg, ig measured after 5 day; type: functional

`CCc1c2c(nc3ccc(OCC(=O)N4CCCCC4)cc13)-c1cc3c(c(=O)n1C2)COC(=O)[C@]3(O)CC` showed an Activity (HCT-116 [1]) of 6.4%, a pIC50 (Raji [2]) of 8.70 and an Activity [3] of 20.6 g. It also gave a pIC50 (LoVo) of 7.09, a pIC50 (HCT-116 [4]) of 8.52 and an Activity [5] of 25.8 g. It also gave an Activity [6] of 23.2 g, an inhibition in vivo at 4 mg/kg (Raji [7]) of 33.8% and a solubility thermodynamic at 24 h [8] of 9.86 µg/mL (≈ 19.1 µM). For the same compound, the Activity [9] was 22.5 g, the Activity [10] was “Non-Toxic” and the Activity (HCT-116 [11]) was 5.48%. The inhibition in vivo at 0.5 mg/kg (HCT-116 [12]) was 92%, the Activity [13] was “Non-Toxic” and the inhibition (HCT-116 [14]) was “Active”. The MRT inf [15] was 13.8 min, the Activity [16] was “Non-Toxic” and the Activity [17] was “Toxic”. The Activity (Raji [18]) was 1186 mm3, the Activity (Raji [19]) was 729 mm3 and the Activity (Raji [20]) was 1203 mm3. It also gave an Activity (HCT-116 [21]) of 7.55%, an Activity (HCT-116 [22]) of 96.2% and an Activity (HCT-116 [23]) of 4.92%. For the same compound, the inhibition [24] was 63.5%, the Cmax [25] was 1630 ng/mL and the Activity (HCT-116 [26]) was 16.95%. The MRT inf [27] was 69 min, the Tmax [28] was 19.8 min and the Activity (Raji [29]) was 1374 mm3.

From ChEMBL document CHEMBL4706505, “F10, a new camptothecin derivative, was identified as a new orally-bioavailable, potent antitumor agent” (Eur J Med Chem, 2020)
